Experimental data as given in patent US20200113901A1, “METHODS OF USING EHMT2 INHIBITORS” (Epizyme, Inc., priority 2017, published 2020).

What was measured:
SNRPN protein = SNRPN protein induction (western blot) in Prader Willi Syndrome patient fibroblast cell lines; format: cell-based, human; details: PWS patient fibroblast cell lines GM21889 and GM21890, increasing concentrations 0.25 μM, 1 μM, 5 μM, 7 days, FIG. 2
Experimental: (§1) Fibroblast cell lines were obtained from Coriell Institute (GM21889 and GM21890). Cells were plated in 6 well plates at 0.13 or 0.26 e6 cells per well. Cells were treated for 7 days with 0, 0.25 μM, 1 μM, or 5 μM Compound No. 205 or 4 μM UNC0638 (positive control) with reseeding into 100 mm dishes and retreatment at day 4. On day 7 cells were lysed in 1X RIPA buffer (Millipore, #20-188) with 0.1% SDS and Protease Inhibitor Cocktail tablet (Roche, #04693159001), and sonicated on ice before being spun at 4° C. Clarified supernatant was assayed for protein concentration by BCA (Pierce, #23225). 25 μg of lysate was used for western blots. Antibodies used for Western blotting include H3 (4499; Cell Signaling) at 1:1000, H3K9me2 (ab1220; Abcam) at 1:1000, SNRPN (PA 1775; BosterBio) at 1:1000, and β-actin (ab8224; Abcam) at 1:2500. Imaging was performed using a Licor Odyssey, and changes in the target band were quantified by densitometry. Ratios between H3K9me2 and H3 were calculated and compound treated samples were normalized to controls (DMSO). Increases in SNRPN protein expression was observed upon increasing concentrations of Compound No. 205. See, e.g., FIGS. 1 and 2.

[1] = tested on: H3K9me2 (H3 di methyl K9); experiment: H3K9me2 western blot in Prader Willi Syndrome patient fibroblast cell lines; format: cell-based, human; details: PWS patient fibroblast cell lines GM21889 and GM21890; 0.25 μM, 1 μM, 5 μM; 7 days; western blot densitometry; FIG. 1
Experimental: as §1

`CNc1cc(C)nc(Nc2ccc(OC)c(OCCCN3CCCC3)c2)n1` [Compound No. 205] was tested, and the SNRPN protein expression (SNRPN protein) was “Increases” and the “H3 di methyl K9 (ratio H3K9me2 to H3, normalized to DMSO control)” value [1] was “decrease”.
